Test results published in patent US20230345940A1, “INSECTICIDE” (Western Sydney University, priority 2020, published 2023).

Test system: adult foraging workers of Apis mellifera
Assay: Acute toxicity to honey bees, Potter Spray Tower
Assay type: in vivo
Conditions: for Knockdown (K), no. of bees / Mortality (D), no. of bees: n = 10, extract 1.0% w/v, bifenthrin 0.05% w/v
Method: The laboratory-based bioassay was performed to assess the acute toxicity of the extracts against adult foraging workers of Apis mellifera. 3 mL aliquots of P. jaceoides extract were applied at 1.0% a.i. w/v via a Potter Spray Tower, using the methodology previously described for the preparation and application of this plant extract to test insects.
Bifenthrin (CAS No 82657-04-3) 97.0% technical (Batch 50118) was sourced from Dr. Ehrenstorfer GmbH D-86190 Augsburg, Germany. A 0.05% w/v a.i. concentration was prepared by dissolving 0.013 g bifenthrin in 1 mL acetone, sonicating for 5 min and then diluted in a 25 mL volumetric flask with 200 ppm Triton X-100 in distilled water. It was applied using a 3 mL aliquot of the 0.05% a.i via a Potter Spray Tower; this concentration was based on recommended label rate in cotton. The control comprised 5 mL acetone and water-Triton X-100 mixture only; two controls were conducted.
Apis mellifera foraging workers for bioassay were collected from a strong, healthy hive at Western Sydney University apiary, at Richmond NSW, Australia, by blocking the hive entrance for 1 min and collecting foragers with a sweep net.
They were immediately transferred to a mesh cage (25×33×33 cm) and maintained in the laboratory at 24° C., where they were fed ad libidum sugar:water 1:1 w/v from cotton wool placed on the mesh at the top of the cage until bioassay, which was undertaken within 1 h of bee collection. Bees for bioassay were randomly collected from the cage using a 120 mL plastic specimen tube, and anaesthetised with medical grade CO2 for 30 s, then ten bees were placed on a 90 mm diameter Petri dish lined with filter paper. The dish with the bees was placed on the Potter Spray Tower stage, and the respective treatment applied, commencing with the control and finishing with bifenthrin treatment.
Immediately after treatment, the treated bees were gently transferred to 250 mL glass beakers, fine nylon mesh was fitted to the top with a rubber band, and the bees fed were sugar:water as above and maintained at 26° C. in very low light. Bee activity was regularly observed and recorded, at 10 min intervals until 420 min (viz. 7 HAT), then less frequently until 48 HAT. By this time, there was bee mortality in both controls, so the investigation was terminated. Data recorded were signs of intoxication, knockdown (K) and mortality (D).

Cc1c(COC(=O)[C@@H]2[C@H](/C=C(\Cl)C(F)(F)F)C2(C)C)cccc1-c1ccccc1 (racemic) [Bifenthrin]
45-50 MAT: time of 50% bee knockdown (0.05% w/v a.i.)
0: Knockdown (K), no. of bees (390 min) | Knockdown (K), no. of bees (400 min) | Knockdown (K), no. of bees (410 min) | Knockdown (K), no. of bees (420 min) | Knockdown (K), no. of bees (450 min)
10D: Mortality (D), no. of bees (480 min)
1: Mortality (D), no. of bees (90 min) | Knockdown (K), no. of bees (330 min) | Knockdown (K), no. of bees (340 min) | Knockdown (K), no. of bees (350 min) | Knockdown (K), no. of bees (360 min) | Knockdown (K), no. of bees (370 min) | Knockdown (K), no. of bees (380 min)
240 MAT: time of 50% mortality (0.05% w/v a.i.)
9: Mortality (D), no. of bees (390 min) | Mortality (D), no. of bees (400 min) | Mortality (D), no. of bees (410 min) | Mortality (D), no. of bees (420 min) | Mortality (D), no. of bees (450 min)
3K, 3D: Knockdown (K), no. of bees (100 min) | Mortality (D), no. of bees (100 min)
6K: Knockdown (K), no. of bees (50 min) | Knockdown (K), no. of bees (60 min) | Knockdown (K), no. of bees (70 min) | Knockdown (K), no. of bees (80 min)
5: Knockdown (K), no. of bees (90 min) | Knockdown (K), no. of bees (220 min) | Knockdown (K), no. of bees (230 min) | Mortality (D), no. of bees (240 min)
100%: mortality (by 480 MAT, 0.05% w/v a.i.)
1K: Knockdown (K), no. of bees (10 min) | Knockdown (K), no. of bees (20 min)
4K: Knockdown (K), no. of bees (45 min)
3: Knockdown (K), no. of bees (140 min) | Knockdown (K), no. of bees (150 min) | Knockdown (K), no. of bees (250 min) | Knockdown (K), no. of bees (260 min) | Knockdown (K), no. of bees (270 min) | Knockdown (K), no. of bees (280 min) | Knockdown (K), no. of bees (290 min) | Knockdown (K), no. of bees (300 min) | Knockdown (K), no. of bees (310 min) | Knockdown (K), no. of bees (320 min)
4K, 4D: Knockdown (K), no. of bees (160 min) | Mortality (D), no. of bees (160 min) | Knockdown (K), no. of bees (170 min) | Mortality (D), no. of bees (170 min) | Knockdown (K), no. of bees (180 min) | Mortality (D), no. of bees (180 min) | Knockdown (K), no. of bees (190 min) | Mortality (D), no. of bees (190 min) | Knockdown (K), no. of bees (200 min) | Mortality (D), no. of bees (200 min) | Knockdown (K), no. of bees (210 min) | Mortality (D), no. of bees (210 min)
3K: Knockdown (K), no. of bees (40 min)
4: Mortality (D), no. of bees (140 min) | Mortality (D), no. of bees (150 min) | Mortality (D), no. of bees (220 min) | Mortality (D), no. of bees (230 min) | Knockdown (K), no. of bees (240 min)
4K,: Knockdown (K), no. of bees (110 min) | Knockdown (K), no. of bees (120 min) | Knockdown (K), no. of bees (130 min)
90 MAT: mortality commenced (0.05% w/v a.i.)
2K: Knockdown (K), no. of bees (30 min)
8: Mortality (D), no. of bees (330 min) | Mortality (D), no. of bees (340 min) | Mortality (D), no. of bees (350 min) | Mortality (D), no. of bees (360 min) | Mortality (D), no. of bees (370 min) | Mortality (D), no. of bees (380 min)
10 MAT: knockdown commenced (0.05% w/v a.i.)
6: Mortality (D), no. of bees (250 min) | Mortality (D), no. of bees (260 min) | Mortality (D), no. of bees (270 min) | Mortality (D), no. of bees (280 min) | Mortality (D), no. of bees (290 min) | Mortality (D), no. of bees (300 min) | Mortality (D), no. of bees (310 min) | Mortality (D), no. of bees (320 min)
